What was measured:
[1] = target: T1, Amine oxidase [flavin-containing] A (Homo sapiens, UniProt P21397); test: DRUGMATRIX: Monoamine Oxidase MAO-A enzyme inhibition (substrate: Kynuramine); design: species or system BTI-TN-5B1-4; settings: bti-tn-5b1-4; Not Active = under 50% inhibition at 10 µM
T1 sequence (P21397 whole entry): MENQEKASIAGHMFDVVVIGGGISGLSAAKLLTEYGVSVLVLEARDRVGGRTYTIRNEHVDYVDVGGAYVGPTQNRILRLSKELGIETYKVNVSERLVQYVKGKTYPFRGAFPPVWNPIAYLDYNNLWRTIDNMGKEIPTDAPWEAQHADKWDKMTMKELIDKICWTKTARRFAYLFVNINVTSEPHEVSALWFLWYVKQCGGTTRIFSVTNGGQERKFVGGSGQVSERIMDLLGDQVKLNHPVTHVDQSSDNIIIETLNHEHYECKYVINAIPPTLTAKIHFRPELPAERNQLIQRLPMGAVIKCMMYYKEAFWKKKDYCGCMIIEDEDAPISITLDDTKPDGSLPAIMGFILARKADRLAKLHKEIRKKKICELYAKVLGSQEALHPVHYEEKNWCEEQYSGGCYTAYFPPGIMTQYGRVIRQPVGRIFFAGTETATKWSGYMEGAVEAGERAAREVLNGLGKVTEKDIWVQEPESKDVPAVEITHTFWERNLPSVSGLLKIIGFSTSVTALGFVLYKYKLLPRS

[2] = target: T2, Alpha-2C adrenergic receptor (Homo sapiens, UniProt P18825); test: DRUGMATRIX: Adrenergic Alpha-2C radioligand binding (ligand: [3H] MK-912); assay type: cell membranes, Sf9, Membrane; settings: sf9
T2 sequence (P18825 whole entry): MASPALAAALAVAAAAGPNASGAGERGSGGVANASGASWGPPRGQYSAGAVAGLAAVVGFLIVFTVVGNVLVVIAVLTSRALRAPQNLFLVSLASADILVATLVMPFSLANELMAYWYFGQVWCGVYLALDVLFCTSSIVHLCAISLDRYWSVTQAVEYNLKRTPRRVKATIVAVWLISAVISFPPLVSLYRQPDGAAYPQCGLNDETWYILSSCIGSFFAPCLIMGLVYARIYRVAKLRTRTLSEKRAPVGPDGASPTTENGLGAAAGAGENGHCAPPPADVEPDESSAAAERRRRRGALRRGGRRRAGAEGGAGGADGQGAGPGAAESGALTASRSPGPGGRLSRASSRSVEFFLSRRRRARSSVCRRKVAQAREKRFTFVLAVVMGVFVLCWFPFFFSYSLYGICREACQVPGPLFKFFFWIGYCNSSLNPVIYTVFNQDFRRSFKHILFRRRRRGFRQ

[3] = DRUGMATRIX: Tumor Necrosis Factor (TNF), Non-Selective radioligand binding (ligand: [125I] TNF-alpha); assay type: cell membranes, Membrane; settings: u-937; Not Active = under 50% inhibition at 10 µM
[4] = target: T3, Alpha-1A adrenergic receptor (Rattus norvegicus, UniProt P43140); test: DRUGMATRIX: Alpha-1A adrenergic receptor radioligand binding (ligand: prazosin); assay type: cell membranes, Wistar, Submaxillary gland, Membrane; settings: Not Active = under 50% inhibition at 10 µM
T3 sequence (P43140 whole entry): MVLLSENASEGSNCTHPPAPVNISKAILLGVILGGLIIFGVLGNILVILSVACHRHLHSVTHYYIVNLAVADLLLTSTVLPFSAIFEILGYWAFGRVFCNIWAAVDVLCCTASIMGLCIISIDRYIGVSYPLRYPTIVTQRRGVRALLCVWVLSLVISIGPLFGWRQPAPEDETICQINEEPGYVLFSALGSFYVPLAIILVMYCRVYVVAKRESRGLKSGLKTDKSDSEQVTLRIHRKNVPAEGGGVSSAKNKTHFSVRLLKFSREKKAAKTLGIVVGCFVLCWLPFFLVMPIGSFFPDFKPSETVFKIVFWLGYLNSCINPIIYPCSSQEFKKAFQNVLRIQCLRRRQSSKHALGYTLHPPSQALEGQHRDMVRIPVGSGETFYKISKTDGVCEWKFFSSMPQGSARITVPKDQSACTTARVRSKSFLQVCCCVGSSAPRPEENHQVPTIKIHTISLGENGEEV

[5] = target: T4, Adenosine receptor A3 (Homo sapiens, UniProt P0DMS8); assay type: cell membranes, CHO-K1, Membrane;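 note: radioligand binding assay with AB-MECA serving as the labeled ligand; in other assays of this panel Not Active means under 50% inhibition at 10 µM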
T4 sequence (P0DMS8 whole entry): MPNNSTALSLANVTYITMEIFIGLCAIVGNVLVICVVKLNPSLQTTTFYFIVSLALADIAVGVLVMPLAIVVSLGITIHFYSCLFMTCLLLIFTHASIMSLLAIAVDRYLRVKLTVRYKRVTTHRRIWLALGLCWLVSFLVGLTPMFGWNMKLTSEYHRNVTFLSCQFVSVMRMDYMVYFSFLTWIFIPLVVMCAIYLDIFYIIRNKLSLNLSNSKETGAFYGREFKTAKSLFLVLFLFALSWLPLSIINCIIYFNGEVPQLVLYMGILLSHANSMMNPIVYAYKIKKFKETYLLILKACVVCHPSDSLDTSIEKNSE

[6] = DRUGMATRIX: Leukotriene, BLT (LTB4) radioligand binding (ligand: [3H]LTB4); assay type: cell membranes, Membrane; settings: u-937; Not Active = under 50% inhibition at 10 µM
[7] = target: Vasopressin V1a receptor (Homo sapiens, UniProt P37288); assay type: cell membranes, Membrane; settings: hek293; note: in other assays of this panel Not Active means under 50% inhibition at 10 µM
Chain of Vasopressin V1a receptor (P37288 whole entry): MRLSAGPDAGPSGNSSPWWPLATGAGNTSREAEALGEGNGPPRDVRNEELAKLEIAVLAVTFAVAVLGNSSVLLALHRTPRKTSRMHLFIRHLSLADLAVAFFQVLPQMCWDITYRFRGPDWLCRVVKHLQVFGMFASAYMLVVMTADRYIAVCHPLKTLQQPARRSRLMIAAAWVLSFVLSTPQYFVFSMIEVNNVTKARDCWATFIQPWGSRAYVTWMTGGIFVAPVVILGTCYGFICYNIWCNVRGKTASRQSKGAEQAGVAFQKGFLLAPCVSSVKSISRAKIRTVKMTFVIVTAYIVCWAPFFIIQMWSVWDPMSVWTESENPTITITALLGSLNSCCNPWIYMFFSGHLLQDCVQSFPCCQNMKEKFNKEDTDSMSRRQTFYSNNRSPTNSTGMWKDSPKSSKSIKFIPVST

SMILES | IC50 [1] | IC50 [2] | IC50 [3] | Ki [3] | IC50 [4] | IC50 ([5]; cho-k1) | IC50 [6] | Ki [6] | IC50 [7] | IC50 ([5]; read-out: IC50) [µM] | Ki ([5]; read-out: Ki) [µM]
CC(C)[C@H]1CC[C@H](C(=O)N[C@H](Cc2ccccc2)C(=O)O)CC1 [NATEGLINIDE] | Not Active | Not Active | Not Active | Not Active | Not Active | Not Active | Not Active | Not Active | Not Active |  | 
CCN[C@@H]1C[C@H](N)[C@@H](O[C@H]2OC(CN)=CC[C@H]2N)[C@H](O)[C@H]1O[C@H]1OC[C@](C)(O)[C@H](NC)[C@H]1O [NETILMICIN] | Not Active | Not Active | Not Active | Not Active | Not Active | Not Active | Not Active | Not Active | Not Active |  | 
COC(=O)C1=C(C)NC(C)=C(C(=O)OCC(C)C)C1c1ccccc1[N+](=O)[O-] (configuration not stated) [NISOLDIPINE] | Not Active | Not Active | Not Active | Not Active | Not Active |  | Not Active | Not Active | Not Active | 7.12 | 4.02
CCOC(=O)C1=C(C)NC(C)=C(C(=O)OC)C1c1cccc([N+](=O)[O-])c1 (configuration not stated) [NITRENDIPINE] | Not Active | Not Active | Not Active | Not Active | Not Active | Not Active | Not Active | Not Active | Not Active |  | 
C#C[C@]1(OC(C)=O)CC[C@H]2[C@@H]3CCC4=CC(=O)CC[C@@H]4[C@H]3CC[C@@]21C [NORETHINDRONE ACETATE] | Not Active | Not Active | Not Active | Not Active | Not Active | Not Active | Not Active | Not Active | Not Active |  | 
COc1ccc2[nH]c([S+]([O-])Cc3ncc(C)c(OC)c3C)nc2c1 (configuration not stated) [OMEPRAZOLE] | Not Active | Not Active | Not Active | Not Active | Not Active | Not Active | Not Active | Not Active | Not Active |  | 
Cc1nccn1CC1CCc2c(c3ccccc3n2C)C1=O (configuration not stated) [ONDANSETRON] | Not Active | Not Active | Not Active | Not Active | Not Active | Not Active | Not Active | Not Active | Not Active |  | 
CCn1cc(C(=O)O)c(=O)c2cc(F)c(N3CCN(C)CC3)cc21 [PEFLOXACIN] | Not Active | Not Active | Not Active | Not Active | Not Active | Not Active | Not Active | Not Active | Not Active |  | 
CCCCOc1ccc(OCCCN2CCOCC2)cc1 [PRAMOXINE] | Not Active | Not Active | Not Active | Not Active | Not Active | Not Active | Not Active | Not Active | Not Active |  | 

— ChEMBL document CHEMBL1909046, “DrugMatrix in vitro pharmacology data”
